For data set [1], the system named is B16-F10 (murine melanoma) cells. As to the kind of experiment: in vitro cytotoxicity against B16-F10 (neutral red staining, 72 hours). The class given is cell-based. The conditions noted are these: Mus musculus. Here is the method:
(§1) BU-3862T and diacetyl-, dihydro- and tetrahydro-BU-3862T were tested for in vitro cytotoxicity against several murine and human tumor cell lines and/or for in vivo antitumor activity in mice. […] B16-F10 (murine melanoma), P388 (murine leukemia), L1210 (murine leukemia) and Moser (human colorectal carcinoma) cells were grown to the logarithmic phase in enriched Eagle minimum essential medium (MEM) supplemented with fetal calf serum (FCS, 10%) and kanamycin (60 mcg/ml), and HCT-116 (human colon carcinoma) cells in Maccoy's 5A medium supplemented with FCS (10%), penicillin (100 u/ml) and streptomycin (100 mcg/ml), harvested and inoculated into wells of the 96- or 24-well tissue culture plate with test materials at the concentrations of 1.5×10^5, 1.2×10^4,1.2×10^4, 2.5×10^5 and 3.0×10^5 cells/ml, respectively. They were incubated at 37° C. in humidified atmosphere of 5% CO2 and 95% air for 72 hours. The cytotoxic activities against B16-F10, Moser and HCT-116 cells were colorimetrically determined at 540 nm after staining viable cells with 0.006% neutral red solution. On the other hand, the cytotoxic activities against P388 and L1210 cells were determined by counting the number of viable cells.

Data set [2] has as its system HCT-116 (human colon carcinoma) cells. As to the kind of experiment: in vitro cytotoxicity against HCT-116 (neutral red staining, 72 hours). The class given is cell-based. On the procedure:
as §1

Data set [3] deals with Moser (human colorectal carcinoma) cells. As to the kind of experiment: in vitro cytotoxicity against Moser (neutral red staining, 72 hours). The class given is cell-based. Here is the method: as §1
The nature of data set [4]: biological activity of BU-3862T derivatives.
For data set [5], the system named is murine and human tumor cell lines. Here is the method:
as §1

A further data set concerns B16 melanoma. The conditions noted are these: for minimum effective dose relative to the parent compound: versus BU-3862T; for inhibitory activity against experimental animal tumor systems: e.g. B16 melanoma in mice; for antitumor efficacy against B16 melanoma, in words: ip; for T/C: Table 6, QD × 9.
Data set [6] relates to P388 (murine leukemia) cells. As to the kind of experiment: in vitro cytotoxicity against P388 (viable cell count, 72 hours). Type of data set: cell-based. The conditions noted are these: Mus musculus; P388, 72 hours. On the procedure: as §1
In data set [7] the test system is L1210 (murine leukemia) cells. The experiment in a line: in vitro cytotoxicity against L1210 (viable cell count, 72 hours). The class given is cell-based. The conditions noted are these: Mus musculus; L1210, 72 hours. Here is the method: as §1
Data set [8] concerns DNA synthesis in B16-F10 melanoma cells. As to the kind of experiment: inhibition of DNA synthesis in cultured B16-F10 melanoma cells. The class given is cell-based, murine.
The subject of data set [9] is RNA synthesis in B16-F10 melanoma cells. The experiment in a line: inhibition of RNA synthesis in cultured B16-F10 melanoma cells. The conditions noted are these: Mus musculus, 14C-uridine incorporation, 4 hours + 60 min. Type of data set: cell-based, murine.
The subject of data set [10] is protein synthesis in B16-F10 melanoma cells. As to the kind of experiment: inhibition of protein synthesis in cultured B16-F10 melanoma cells. Type of data set: cell-based, murine.
A short description of a further data set: solubility. The class given is physicochemical.
The subject of a further data set is P388 leukemia. As to conditions: at the doses tested.
The mark [11] stands for this setting: B16-F10, 72 hours, read-out: IC50.
The mark [12] stands for this setting: HCT-116, 72 hours, read-out: IC50.
Setting [13] is: Moser, 72 hours, read-out: IC50.

In brackets after ≈: the same amount, converted by molar mass. Like-named read-outs stand apart in the source and are kept apart here. Where only a bound is given, the exact number is not on record here.

Description for B16 melanoma: (§2) In vivo antitumor activities of BU-3862T and the diacetyl and dihydro derivatives were determined in tumor-bearing BDF1 or CDF1 mice. Male BDF1 mice were intraperitoneally inoculated with 0.5 ml of 10% melanotic melanoma B16 brei and female CDF1 mice were also intraperitoneally inoculated with 0.4 ml of diluted ascitic fluid containing 10^5 lymphoid leukemia L1210 cells or 10^6 lymphocytic leukemia P388 cells.
Description for L1210 leukemia: as §2
Description for P388 leukemia: as §2

What is called IC50 is the concentration at which inhibition is half-maximal. `C=C(C)CC(NC(=O)[C@H](COC(C)=O)NC(=O)CCCCC(C)C)C(=O)C1(COC(C)=O)CO1` (some centres unmarked) [Diacetyl-BU-3862T]: the figures for the IC50 in data set [1] (setting [11]), in data set [2] (setting [12]) and in data set [3] (setting [13]) were 0.003 µg/mL (≈ 0.00622 µM), 0.017 µg/mL (≈ 0.0352 µM) and 0.044 µg/mL (≈ 0.0912 µM), respectively. For the same compound, the “biological activity, in words” value in [4] is “retained the biological activity”. Besides, the “cytotoxic potency relative to BU-3862T” value in [5] was “approximately half those of BU-3862T”. Moreover, the “minimum effective dose relative to the parent compound” value with B16 melanoma (Q4D × 3, ip) was “approximately ten times less active than the parent compound”. The “inhibitory activity against experimental animal tumor systems” value (from here on “inhibitory activity”) in the data set with B16 melanoma is “exhibit inhibitory activity”. Also, the “antitumor efficacy against B16 melanoma, in words” value (“antitumor efficacy” below) in the data set on B16 melanoma is “significant anti-B16 melanoma activity”.
The T/C is the ratio of treated to control. Turning to `CO[C@@]12[C@H](COC(N)=O)C3=C(C(=O)C(C)=C(N)C3=O)N1C[C@@H]1N[C@@H]12` [Mitomycin C, reference compound], the IC50 was determined as 0.5 µg/mL (≈ 1.5 µM) in [1] (B16-F10, 72 h); 0.8 µg/mL (≈ 2.39 µM) in data set [2] (HCT-116, 72 h); 1.2 µg/mL (≈ 3.59 µM) in data set [3] (72 h). In addition, the T/C is on record as 125% in the data set on L1210 leukemia (0.25 mg/kg/day ip, QD × 3); 131% in the data set on L1210 leukemia (0.5 mg/kg/day ip, QD × 3); 138% in the data set on L1210 leukemia (1.0 mg/kg/day ip, QD × 3); 163% with L1210 leukemia (2.0 mg/kg/day ip, QD × 3).
Regarding `CC(C)CCCCC(=O)N[C@@H](CO)C(=O)NC(CC(C)C)C(=O)C1(CO)CO1` (some centres unmarked) [Dihydro-BU-3862T], the IC50 in data set [1] (setting [11]) turned out to be 0.0032 µg/mL (≈ 0.00799 µM); in [2] (setting [12]), 0.013 µg/mL (≈ 0.0325 µM); in [3] (setting [13]), 0.038 µg/mL (≈ 0.0949 µM). In addition, the “biological activity, in words” value in data set [4] is “retained the biological activity”. Besides, the “cytotoxic potency relative to BU-3862T” value in [5] is listed as “approximately half those of BU-3862T”. Further, the “minimum effective dose relative to the parent compound” value with B16 melanoma (Q4D × 3, ip) is given as “approximately ten times less active than the parent compound”. Besides, the “inhibitory activity” value with B16 melanoma is on record as “exhibit inhibitory activity”. Also, in the data set on B16 melanoma, the “antitumor efficacy” value is on record as “significant anti-B16 melanoma activity”.
Consider `C=C(C)CC(NC(=O)[C@H](CO)NC(=O)CCCCC(C)C)C(=O)C1(CO)CO1` (some centres unmarked) [BU-3862T], for which the IC50 was found to be 0.0017 µg/mL (≈ 0.00427 µM) in [1] (setting [11]); 0.031 µg/mL (≈ 0.0778 µM) in data set [6]; 0.01 µg/mL (≈ 0.0251 µM) in [7]; 0.0097 µg/mL (≈ 0.0243 µM) in data set [2] (setting [12]); 0.016 µg/mL (≈ 0.0402 µM) in data set [3] (setting [13]); 0.1 µg/mL in data set [8] (Mus musculus, B16-F10, 3H-thymidine incorporation, 3.5 hours + 30 min). The IC50 amounted to 11 µg/mL in data set [9] and 0.06 µg/mL in data set [10] (Mus musculus, B16-F10, 3H-leucine incorporation, 4 hours + 60 min). The “potency on DNA synthesis relative to that on RNA synthesis in terms of IC50 value” in data set [8] (DNA versus RNA synthesis) is recorded as “over 100 times”. In addition, the “potency on protein synthesis relative to that on RNA synthesis in terms of IC50 value” in data set [10] (protein versus RNA synthesis) is “over 100 times”. Besides, the solubility entry in “solubility” (in benzene and other organic solvents) is “practically insoluble”; in “solubility” (in dimethyl sulfoxide, dimethylformamide, methanol, ethanol, ethyl acetate and chloroform) it was “readily soluble”; in “solubility” (in water) it was “practically insoluble”. Also, the “potency (minimum effective dose) relative to mitomycin C” value with B16 melanoma (Q4D × 3, ip) was “the same as that of mitomycin C”. Moreover, the “chemotherapeutic index (ratio of optimal dose to minimum effective dose), intermittent versus consecutive dosing” value in the data set with B16 melanoma (Q4D × 3 versus QD × 9) is listed as “broader therapeutic range”. Moreover, the “maximum T/C value, intermittent versus consecutive dosing” value with B16 melanoma (Q4D × 3 versus QD × 9) is “better antitumor activity”. Also, the T/C in the data set with B16 melanoma (0.13 mg/kg/day ip) was 123%; in the data set on B16 melanoma (0.25 mg/kg/day ip) it was 133%; in the data set on B16 melanoma (0.5 mg/kg/day ip), 133%; with B16 melanoma (0.63 mg/kg/day (so in the source) ip), 113%; in the data set with B16 melanoma (1.0 mg/kg/day ip), 97%; in the data set on B16 melanoma (2.0 mg/kg/day ip), “Tox”. Besides, the T/C in the data set with L1210 leukemia (0.25 mg/kg/day ip, Q3D × 3) was 119%; with L1210 leukemia (1.0 mg/kg/day ip, Q3D × 3) it was 125%; in the data set with L1210 leukemia (2.0 mg/kg/day ip, Q3D × 3) it was 144%; with L1210 leukemia (4.0 mg/kg/day ip, Q3D × 3) it was “Tox”. Besides, the “inhibitory activity” value in the data set on B16 melanoma is given as “exhibit inhibitory activity”. Further, the “antitumor efficacy” value in the data set with B16 melanoma was “excellent therapeutic efficacy against B16 melanoma”. The “maximum T/C value” in the data set on L1210 leukemia (L1210 leukemia, ip) is 145%. The “antitumor activity against L1210 leukemia, in words” value in the data set with L1210 leukemia (ip) is given as “moderate antitumor activity”. The “prolongation of lifespan in P388 leukemia-bearing mice” value in the data set with P388 leukemia is “no significant prolongation of lifespan”.
Take `CC(C)CCCCC(=O)N[C@@H](CO)C(=O)NC(CC(C)C)C(=O)C(CO)CO` (some centres unmarked) [Tetrahydro-BU-3862T]: the IC50 in data set [1] (setting [11]) is 0.53 µg/mL (≈ 1.32 µM); in [2] (setting [12]), greater than 1 µg/mL; in data set [3] (setting [13]), greater than 1 µg/mL. In [4], the “biological activity, in words” value is reported as “devoid of the activity”. The “cytotoxic activity compared with BU-3862T, diacetyl and dihydro derivatives” value in [5] is “significantly less active than the above compounds”.

Source of the values: US4912133A, “BU-3862T antitumor antibiotic” (priority 1988, dated 1990).
